Results on 1 molecule are retold here after patent US9962351B2, “Small molecule substance for improving sensitivity of bacteria to antibiotics” (priority 2012, dated 2018).

The test system of experiment [1] is 6 species of antibiotic resistant Escherichia coli (GEN-R, AMP-R, BLFX-R, KAN-R, NA-R and CAZ-R). The following applies: 20 mM glutamine plus 8 μg/mL balofloxacin, 50 μg/mL gentamicin, 160 μg/mL nalidixic acid, ceftazidime, kanamycin or ampicillin; 4 h. How it is done: (§1) Bacterium cultures of 20 mL were collected and centrifuged at 8,000 rpm for 5 minutes. The bacterial pellets were washed with equal volume of 0.85% saline solution, suspended in M9 medium containing 10 mM sodium acetate and then adjusted to OD600 of 0.5. […] These mixtures were cultured in a shaker at 200 rpm at 37° C. for 4 h. Then 100 μL of bacterial suspension was used for bacterial plate counting.

The test system of experiment [2] is eight species of antibiotic resistant Escherichia coli. Put plainly: Viable counts and survival rate of several antibiotic resistant bacteria with ampicillin. In kind it is cell-based. As to conditions: 20 mM glutamine, 160 μg/mL ampicillin, 4 hours. How it is done:
(§2) The viable counts and survival rate of bacteria were calculated after added with 20 mM glutamine and 160 μg/mL ampicillin for 4 hours.

Experiment [3] concerns ampicillin-resistant Escherichia coli (AMP-R). Type of experiment: cell-based. As to conditions: 20 mM glutamine; for killing efficiency increase compared with the treatment without glutamine: 4 hours. How it is done: as §1
To investigate the effect of antibiotic dose on the sensitivity of bacteria to antibiotics by glutamine, 20 mM glutamine and 20, 40, 80, 160, 240, 320 and 400 μg/mL ampicillin were used to treat ampicillin-resistant Escherichia coli for 4 hours, and then bacterial plate counting was conducted. The survival rates of bacteria with and without glutamine were compared at the same antibiotic concentration.
To investigate the effect of exposure time on the killing efficiency, the viable counts of bacteria were counted during 1-8 hours after spiked with 20 mM glutamine and 160 μg/mL ampicillin.
To investigate the effect of glutamine concentration on killing efficiency and the optimum bactericidal concentrations, different concentrations of glutamine were added to 160 μg/mL ampicillin. The number of live bacteria was counted after 4 hours. The survival rate was calculated according to the formula below: viable counts at different concentration of glutamine/viable counts without glutamine×100%.
Single clone of ampicillin-resistant Escherichia coli was selected and inoculated in 100 mL LB medium and cultured at 200 rpm at 37° C. for 16 hours. Bacterial suspension of 20 mL was collected and centrifuged at 8,000 rpm for 5 min. The resulting bacterial pellets were washed with equal volume of 0.85% saline solution, suspended in M9 medium containing 10 mM sodium acetate and then adjusted to […] of 0.5. Aliquots of 5 mL bacterial cells were transferred to test tubes for further application.
The sample was added with 160 μg/mL ampicillin and 0-20 Mm glucose, then cultured in a shaker at 200 rpm at 37° C. for 4 hours. The cell number was counted and survival rate was calculated. […]

Experiment [4] deals with ampicillin-resistant Escherichia coli biofilm. Put plainly: Biofilm on PE-50 catheters in vitro, survival rate. Type of experiment: cell-based. As to conditions: 6 hours. How it is done: (§3) Single clone of ampicillin-resistant Escherichia coli was selected and incubated in LB medium overnight, then transferred into 2 mL fresh LB medium according to the proportion of 1:200 dilutions and transferred to 6 mm ultraviolet sterilized PE-50 catheters. The catheters were inoculated in 1 mL LB at 37 for 24 h. The culture medium was changed every 24 hours for 3 days. The biofilm of ampicillin-resistant bacteria in PE50 catheters were washed with 1 mL sterile phosphate-buffered saline five times to remove loosely adherent cells, and then transferred to 1.5 mL EP tubes.
The test was divided into six groups: saline solution control, 20 mM glutamine, 160 μg/mL ampicillin, 160 μg/mL ampicillin plus 20 mM glutamine, 160 μg/mL ampicillin plus 20 mM glucose, 160 μg/mL ampicillin plus 20 mM glutamine and 20 mM glucose. The catheters were cultured in a shaker at 200 rpm at 37 for 6 hours. The bacterial biofilm was removed from catheters with sonication for 10 minutes. Serial dilutions and spot-plating were performed to determine the cell number. The bacterial survival rate was calculated as: viable counts in treatment group/viable counts in control group×100%.

Experiment [5] relates to Staphylococcus aureus, Edwardsiella tarda, Beta streptococcus, Pseudomonas aeruginosa, Escherichia coli, Vibrio alginolyticus and Vibrio parahaemolyticus. Put plainly: Plate counting of several species of bacteria with ampicillin and glutamine. In kind it is cell-based. The following applies: 20 mM glutamine and ampicillin at double MIC for each strain, 4 hours. The procedure:
(Staphylococcus aureus, B. streptococcus, Pseudomonas aeruginosa, Escherichia coli) or 30° C. (the others) for 16 hours.

Experiment [6] relates to penicillin-resistant Escherichia coli (4 antibiotic resistant bacteria). In words: Viable counts and survival rate of penicillin-resistant bacteria with 4 penicillins. In kind it is cell-based. The following applies: 20 mM glutamine with ampicillin 320 μg/mL, penicillin G 2560 μg/mL, amoxicillin 512 μg/mL or carbenicillin 320 μg/mL, 4 hours. The procedure: To investigate whether the sensitivity of Escherichia coli and antibiotic resistant Escherichia coli to penicillin antibiotics was improved with glutamine, the samples of control bacteria and penicillin-resistant bacteria were prepared according to Embodiment 2.1. The viable counts and survival rate of bacteria were calculated after added with 20 mM glutamine and 4 kinds of penicillins (does for control bacteria were: ampicillin 25 μg/mL, penicillin G 200 μg/mL, amoxicillin 20 μg/mL, carbenicillin 100 μg/mL; does for antibiotic resistant bacteria were: ampicillin 320 μg/mL, penicillin G 2560 μg/mL, amoxicillin 512 μg/mL, carbenicillin 320 μg/mL) for 4 hours. […] The sensitivity of control bacteria increased 38-1000 times and 71-1900 times for 4 antibiotic resistant bacteria when added with glutamine.

The subject of experiment [7] is Escherichia coli K12 BW25113 (control bacteria). Put plainly: Viable counts and survival rate of control bacteria. In kind it is cell-based. The following applies: 4 hours. The procedure: as §2
The viable counts and survival rate of bacteria were calculated after added with 20 mM glutamine and 4 kinds of penicillins (does for control bacteria were: ampicillin 25 μg/mL, penicillin G 200 μg/mL, amoxicillin 20 μg/mL, carbenicillin 100 μg/mL; does for antibiotic resistant bacteria were: ampicillin 320 μg/mL, penicillin G 2560 μg/mL, amoxicillin 512 μg/mL, carbenicillin 320 μg/mL) for 4 hours.
The viable counts and survival rate of bacteria were calculated after added with 20 mM glutamine and antibiotics at the concentration of 8 times of MIC for 4 hours.

Experiment [8] deals with antibiotic-resistant bacteria in kidneys. Put plainly: Mouse urinary tract infection model, bacterial content in kidneys. Type of experiment: in vivo. As to conditions: mice, tail i.v. twice-daily for 3 days; glutamine 100 mg kg−1, glucose 100 mg kg−1, ampicillin 320 mg kg−1 as present; saline group 16750. How it is done:
(§4) In vivo experiments in mice, female mice (5 weeks, weighing 18-20 g) received surgical implantation in the urinary tract of PESO catheter tubes. The mice were randomly divided into six groups in 48 h after the surgery, five each group. The six groups included treatment with saline (group 1), 100 mg kg^−1 glutamine (group 2), 320 mg kg^−1 ampicillin (group 3), 100 mg kg^−1 glutamine plus 320 mg kg^−1 ampicillin (group 4), 100 mg kg^−1 glucose plus 320 mg kg^−1 ampicillin (group 5), and 100 mg kg^−1 glutamine and 100 mg kg^−1 glucose plus 320 mg kg^−1 ampicillin (group 6) by tail intravenous injection for 3 days, twice-daily. Catheter tubes were extracted in 24 hours after the last treatment. To dislodge biofilm cells, catheters were suspended in saline solution with ultrasonic. Serial dilutions and spot-plating were performed to determine the bacterial survival rate in biofilm. The survival rate was calculated as: viable counts in treatment group/viable counts in control group×100%.
Meanwhile, kidneys of mice were homogeneous with appropriate amount of saline. Bacterial content in kidneys was determined by plate counting method.

For experiment [9], the system named is ampicillin-resistant Escherichia coli biofilm. In words: Mouse urinary tract catheter biofilm model, bacterial survival rate in biofilm. The following applies: mice, tail intravenous injection twice-daily for 3 days; glutamine 100 mg kg−1, glucose 100 mg kg−1, ampicillin 320 mg kg−1 as present. Type of experiment: in vivo. The procedure: as §3
as §4, with “To dislodge biofilm cells, catheters were suspended in saline solution with ultrasonic. Serial dilutions and spot-plating were performed to determine the bacterial survival rate in biofilm.” left out

SMILES strings stand for the structures. Where “and” joins values, the source holds several entries; their conditions need not be identical. Equal entries are not always repeated. Where two headings read alike, the source gives them in different places.

In the case of `NC(=O)CC[C@H](N)C(=O)O` [glutamine], the “sensitivity of antibiotic resistant bacteria to respective antibiotic” value in experiment [1] is “improved the sensitivity of 6 species of antibiotic resistant bacteria to respective antibiotic”. Further, the “sensitivity to ampicillin increased” value was 4-36 times in experiment [2] and 1.75 times in experiment [7] (20 mM glutamine, 160 μg/mL ampicillin). Moreover, the “killing efficiency increase compared with the treatment without glutamine” value in experiment [3] (20 μg/mL ampicillin) was 1.12 folds; in [3] (40 μg/mL ampicillin) it was 1.57 folds; in [3] (80 μg/mL ampicillin), 1.95 folds; in [3] (160 μg/mL ampicillin), 7.66 folds; in experiment [3] (240 μg/mL ampicillin), 24.29 folds; in experiment [3] (320 μg/mL ampicillin), 137.78 folds. Further, the “killing efficiency increase compared with the treatment without glutamine” value in experiment [3] (400 μg/mL ampicillin) was 171.34 folds and 200 folds. For the same molecule, the “elevated sensitivity of ampicillin-resistant bacteria to ampicillin” value in [3] (160 μg/mL ampicillin, 4 h) is on record as “about 200 folds”. Further, the killing efficiency increase in [3] (160 μg/mL ampicillin, after 4 hours or more) is on record as 8-22 times. Also, in [4] (20 mM glutamine or 160 μg/mL ampicillin alone), the “elimination of biofilm by single agent” value is “did not eliminate the antibiotic-resistant bacterium biofilm”. Also, in [4] (20 mM glutamine, 160 μg/mL ampicillin, 20 mM glucose as present), the “bacterial survival rate in biofilm (treatment group/saline control)” value is 96.03%. In addition, the “sensitivity of several species of bacteria to ampicillin” value in experiment [5] is reported as “improved generally”. Further, the “sensitivity to four types of penicillins increased” value is 71-1900 times in experiment [6] and 38-1000 times in experiment [7] (20 mM glutamine with ampicillin 25 μg/mL, penicillin G 200 μg/mL, amoxicillin 20 μg/mL or carbenicillin 100 μg/mL). Also, the “sensitivity to 4 kinds of antibiotics improved” value in experiment [7] (20 mM glutamine with tetracycline, erythromycin, clindamycin or rifampicin at 8 times of MIC) was “approximately 1.5 times”. Moreover, in [8], the “bacterial content in kidneys” value was determined as 9113 cell/g. The “bacterial survival rate in catheter biofilm in comparison with saline control” value in experiment [9] is 88.24%.
